The values below come from patent US20040171086A1, “Selective modulation of TLR-mediated biological activity” (3M Innovative Properties Company, priority 2003, published 2004).

Test [1] has as its system Myeloid DCs. Kind of test: IL-12 production by myeloid DCs (IGEN analysis). It counts as cell-based, human. The protocol:
(§1) The blood myeloid dendritic cells (mDC) were isolated from the BDCA-4 negative cell fraction using the Miltenyi Microbead technology system (Miltenyi BioTec, Auburn, Calif.). Cells were resuspended in 4° C. separation buffer (PBS- pH 7.2, 0.5% BSA-2.5 gm, 2 mM 0.5M EDTA) at 20 μl per 10^7 total cells. […] The cells were resuspended in 500 μL of separation buffer per 10^8 total cells. […] BDCA-1^+mDCs were enriched using the Miltenyi Automacs POSSELD software. The cells retained in the column were eluted into a sterile 50 mL polystyrene conical tube.
(§2) Compounds, reconstituted in dimethyl sulfoxide (DMSO, sterile cell culture grade, Sigma Chemical Co., St. Louis, Mo.) were added at 2× their final concentration to a 96-well flat-bottom sterile tissue culture polystyrene plate (Benton Dickinson Labware, Franklin Lakes, N.J.). Cells were then added at 2× the final concentration (final cell concentration is 1×10^6 cells/mL). Plates were incubated for 16-24 hours at 37° C., 5% CO2. After incubation, plates were centrifuged at 1000 RPM for 10 minutes at 25° C. Supernatants were transferred to a 0.75 mL sterile polypropylene Matrix box (Matrix, Hudson, N.Y.) and stored at −20° C. for future cytokine analysis.
IL-12 analysis was performed using IGEN analysis. More than two hours prior to performing the analysis, a 1:20 dilution of M-280 Streptavidin Dynabeads was prepared in IGEN buffer. Also, a 1 μg/mL solution of biotinylated IL-12 antibody (Cat. No. AHC7129, Biosource International, Camarillo, Calif.) in IGEN buffer was prepared. The 1:20 Dynabeads solution and the biotinylated antibody solution were mixed together and incubated 30 minutes at room temperature, then stored at 4° C. until the analysis was performed.
To perform the analysis, 50 μL of the Dynabeads/biotinylated antibody solution was added to each well of a 96-well plate. […] 25 μL of sample was added to each well, each sample containing either a standard dilution or an experimental sample.
The 96-well plate was tapped to mix the contents of each well, covered with plate sealer, and incubated at room temperature for 2.5 hours. Following the incubation, 100 μL of IGEN PBS Buffer was added to each well for a total assay volume of 200 μL and read on the IGEN M-8 Analyzer (IGEN International, Inc., Gaithersburg, Md.) using the hIL-12 protocol.

The target in test [2] is T1, human TLR8 (Homo sapiens, UniProt Q9NR97).
T1 construct: expressed in transfected cells; host or cells: HEK293 (ATCC CRL-1573), pIRES vector, G-418 selected
T1 sequence (Q9NR97 27-1041): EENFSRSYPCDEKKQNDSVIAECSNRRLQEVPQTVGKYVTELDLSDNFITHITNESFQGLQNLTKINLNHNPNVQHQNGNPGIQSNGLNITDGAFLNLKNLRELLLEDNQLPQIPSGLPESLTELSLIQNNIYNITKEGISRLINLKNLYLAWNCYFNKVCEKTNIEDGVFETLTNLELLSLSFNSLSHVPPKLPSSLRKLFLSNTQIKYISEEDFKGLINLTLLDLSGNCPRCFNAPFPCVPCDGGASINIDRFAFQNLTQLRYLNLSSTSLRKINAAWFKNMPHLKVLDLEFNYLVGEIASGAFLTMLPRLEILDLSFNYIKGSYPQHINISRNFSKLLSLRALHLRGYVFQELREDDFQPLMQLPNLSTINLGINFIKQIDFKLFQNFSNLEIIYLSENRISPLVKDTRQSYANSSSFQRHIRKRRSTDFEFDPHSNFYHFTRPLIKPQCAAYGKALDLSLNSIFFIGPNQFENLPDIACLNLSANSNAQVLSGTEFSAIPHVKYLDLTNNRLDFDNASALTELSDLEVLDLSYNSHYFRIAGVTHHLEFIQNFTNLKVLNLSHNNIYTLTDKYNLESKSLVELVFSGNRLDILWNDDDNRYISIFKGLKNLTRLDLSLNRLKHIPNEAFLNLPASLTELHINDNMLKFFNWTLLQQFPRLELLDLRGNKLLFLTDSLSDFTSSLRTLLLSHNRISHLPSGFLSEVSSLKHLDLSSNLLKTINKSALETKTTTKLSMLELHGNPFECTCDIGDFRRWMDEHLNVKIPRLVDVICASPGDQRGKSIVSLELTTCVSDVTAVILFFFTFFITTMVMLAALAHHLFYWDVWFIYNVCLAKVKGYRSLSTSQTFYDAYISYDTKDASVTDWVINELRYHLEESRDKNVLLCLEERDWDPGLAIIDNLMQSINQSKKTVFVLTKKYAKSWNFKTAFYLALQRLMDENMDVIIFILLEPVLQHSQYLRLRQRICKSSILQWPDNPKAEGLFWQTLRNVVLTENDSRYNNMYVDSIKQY
Kind of test: NFκB-luciferase reporter assay in HEK293 cells transfected with human TLR8 (HEK293-TLR8). It counts as cell-based. To be noted: HEK293-TLR8, 10 μM IRM, 16 hours. The protocol: (§3) A compound was identified as increasing cellular activity mediated through a given TLR if it induced at least a two-fold increase in NFκB-induced luciferase signal compared to the control.
(§4) HEK293 medium was prepared from 90% Minimum Essential Medium (MEM) with 2 mM L-glutamine and Earle's Balanced Salt Solution (Invitrogen Corp., Rockville, Md.) adjusted to contain 1.5 g/L sodium bicarbonate, 0.1 mM non-essential amino acids, and 1.0 mM sodium pyruvate; 10% heat-inactivated fetal calf serum. HEK293 cells were cultured by incubating cells in HEK293 medium overnight at 37° C., 8% CO2.
(§5) The cells were co-transfected with (1) pIRES (BD Biosciences Clontech, Palo Alto, Calif.) either (a) unmodified (HEK293-vector), (b) containing an expressible human TLR7 gene (HEK293-TLR7), or (c) containing an expressible human TLR8 gene (HEK293-TLR8), and (2) NFκB-luc reporter (Stratagene, La Jolla, Calif.) in a 10:1 ratio with Fugene 6 transfection reagent (Roche Diagnostics Corp., Indianapolis, Ind.) following the manufacturer's instructions.
(§6) The cells were stimulated with 1 μL of IRM compounds at 1 mM in DMSO (final IRM concentration of 10 μM) or 1 μL DMSO as a control. The plates were then incubated an additional 16 hours at 37° C., 5% CO2. The luciferase signal was read using the LucLite kit (Packard Instrument Co., Meriden, Conn.). Luminescence was measured on an LMAX luminometer (Molecular Devices Corp., Sunnyvale, Calif.).

Test [3] addresses T2, TLR7 (Homo sapiens, UniProt Q9NYK1).
T2 sequence (Q9NYK1 27-1049): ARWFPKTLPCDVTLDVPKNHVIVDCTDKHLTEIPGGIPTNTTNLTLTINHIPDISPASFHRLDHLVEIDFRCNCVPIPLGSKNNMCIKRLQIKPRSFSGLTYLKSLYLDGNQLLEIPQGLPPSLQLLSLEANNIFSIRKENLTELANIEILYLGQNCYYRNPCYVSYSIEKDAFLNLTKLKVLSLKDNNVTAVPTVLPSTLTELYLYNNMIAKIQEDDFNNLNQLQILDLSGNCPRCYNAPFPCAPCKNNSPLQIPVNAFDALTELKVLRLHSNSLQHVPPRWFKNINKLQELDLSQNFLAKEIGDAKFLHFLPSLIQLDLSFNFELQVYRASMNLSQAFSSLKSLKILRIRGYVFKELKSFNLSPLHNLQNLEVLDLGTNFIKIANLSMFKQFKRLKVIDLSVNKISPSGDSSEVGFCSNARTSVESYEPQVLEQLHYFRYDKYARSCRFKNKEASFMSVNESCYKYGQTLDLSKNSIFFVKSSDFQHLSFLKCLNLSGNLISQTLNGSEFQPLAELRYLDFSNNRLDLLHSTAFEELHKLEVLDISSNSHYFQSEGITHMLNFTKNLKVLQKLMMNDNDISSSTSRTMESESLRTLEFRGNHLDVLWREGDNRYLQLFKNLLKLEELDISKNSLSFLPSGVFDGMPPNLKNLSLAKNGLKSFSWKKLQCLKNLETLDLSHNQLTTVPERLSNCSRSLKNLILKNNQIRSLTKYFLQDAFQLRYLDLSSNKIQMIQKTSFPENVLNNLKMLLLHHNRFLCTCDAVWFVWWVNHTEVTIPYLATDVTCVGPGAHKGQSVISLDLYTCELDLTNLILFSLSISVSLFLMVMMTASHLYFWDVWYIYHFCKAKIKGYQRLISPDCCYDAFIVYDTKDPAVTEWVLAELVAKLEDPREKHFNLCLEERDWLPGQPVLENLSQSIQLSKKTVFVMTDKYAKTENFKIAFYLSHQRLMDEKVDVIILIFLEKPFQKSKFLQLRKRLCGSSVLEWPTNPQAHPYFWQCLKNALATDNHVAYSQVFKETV
Kind of test: NFκB-luciferase reporter assay in HEK293 cells transfected with human TLR7 (HEK293-TLR7). It counts as cell-based. Further details: expressed in transfected cells; host or cells: HEK293 (ATCC CRL-1573), pIRES vector, G-418 selected. As to conditions: HEK293-TLR7, 10 μM IRM, 16 hours. The protocol:
as §3, §4, §5, §6
Background: In a reporter assay the amount or activity of a reporter protein is the signal.

For test [4], the system named is plasmacytoid dendritic cells (pDCs). Kind of test: Activation of plasmacytoid dendritic cells (CD80/HLA-DR staining, flow cytometry). To be noted: two donors; 1 μM IRM or 3 μM CpG2216, 16-24 hours; HLA-DR positive with increased CD80; FIG. 2. It counts as cell-based, human. The protocol: The cells were resuspended in 500 μL of separation buffer per 10^8 total cells. […] The cells retained in the column were eluted into a sterile 50 mL polystyrene conical tube.
as §2
(In general: Flow cytometry measures light scatter and fluorescence of single cells or particles in a stream.)

The subject of test [5] is myeloid dendritic cells (mDCs). Kind of test: Activation of blood myeloid dendritic cells (CD80/HLA-DR staining, flow cytometry). As to conditions: two donors; 1 μM IRM or 3 μM CpG2216, 16-24 hours; HLA-DR positive with increased CD80; FIG. 1. It counts as cell-based, human. The protocol:
as §1, §2

Molecules are shown by their SMILES.

In the case of `CCCc1nc2c(N)nc3ccccc3c2s1` [IRM9, 2-propylthiazolo[4,5-c]quinolin-4-amine], the IL-12 in test [1] (donor3, 3.0 μM IRM) is reported as 693 pg/mL.
As to `CCc1nc2c(N)nc3ccccc3c2n1CCCCS(=O)(=O)c1cc(Cl)cc(Cl)c1` [IRM20, 1-{4-[(3,5-dichlorophenyl)sulfonyl]butyl}-2-ethyl-1H-imidazo[4,5-c]quinolin-4-amine], the “TLR8: fold increase of NFκB-induced luciferase signal compared to a DMSO control” value in test [2] came to 6.04 fold increase. Further, the “TLR7: fold increase of NFκB-induced luciferase signal compared to a DMSO control” value in test [3] stood at 4.22 fold increase.
Turning to `CCc1nc2c(N)nc3ccccc3c2n1CCCCNS(C)(=O)=O` [IRM36, N-[4-(4-amino-2-ethyl-1H-imidazo[4,5-c]quinolin-1-yl)butyl]methanesulfonamide], the “activation of plasmacytoid dendritic cells (pDCs) in vitro” value in test [4] is given as “activated”. In addition, the IL-12 was 57 pg/mL in test [1] (donor3, 3.0 μM IRM) and 77 pg/mL in test [1] (donor4, 3.0 μM IRM). Besides, the “activation of myeloid dendritic cells (mDCs) in vitro” value in test [5] is reported as “not activated”.
Take `CCOCc1nc2c(N)nc3ccccc3c2n1CCCNC(=S)Nc1cccc(C#N)c1` [IRM37, N-{3-[4-amino-2-(ethoxymethyl)-1H-imidazo[4,5-c]quinolin-1-yl]propyl}-N′-(3-cyanophenyl)thiourea]: the IL-12 is listed as 296 pg/mL in test [1] (donor3, 3.0 μM IRM) and 491 pg/mL in test [1] (donor4, 3.0 μM IRM).
The matching figures for `Cc1nc2c(N)nc3ccccc3c2n1CCCCNC(=O)N1CCCCC1` [IRM38, N-[4-(4-amino-2-methyl-1H-imidazo[4,5-c]quinolin-1-yl)butyl]piperidine-1-carboxamide]: 17 pg/mL and 20 pg/mL.
The matching figures for `CCc1nc2c(N)nc3ccccc3c2n1CC(C)(C)NC(=O)Nc1ccccc1` [IRM39, N-[2-(4-amino-2-ethyl-1H-imidazo[4,5-c]quinolin-1-yl)-1,1-dimethylethyl]-N′-phenylurea]: 280 pg/mL and 400 pg/mL.
The matching figures for `CCOCc1nc2c(N)nc3ccccc3c2n1CC(C)(C)O` [IRM40, 4-amino-α,α-dimethyl-2-ethoxymethyl-1H-imidazo[4,5-c]quinolin-1-ethanol]: 517 pg/mL and 765 pg/mL.
Take `CC(C)Cn1cnc2c(N)nc3ccccc3c21` [IRM41, 1-(2-methylpropyl)-1H-imidazo[4,5-c]quinolin-4-amine]: the IL-12 in test [1] (donor3, 3.0 μM IRM) amounted to 17 pg/mL; in test [1] (donor4, 3.0 μM IRM), 39 pg/mL.
